Data: patent US20030027819A1, “Beta-sheet mimetics and methods relating to the use thereof” (Molecumetics Ltd., priority 1996, published 2003)
Like-named read-outs stand apart in the source and are kept apart here. Each block holds one compound with its values, some of them ahead of it.

What was measured:
thioredoxin = experiment: Insulin disulfide reduction by thioredoxin (turbidity at 650 nm); details: 8 μM thioredoxin, 0-100 μM compound, 60 minutes
[1] = test system: TNF induced V-CAM expression in human umbilical vein entothelial cells (HUVEC); experiment: Inhibition of TNF induced V-CAM expression in HUVEC; assay type: cell-based
Description: Upon stimulation with inflammatory cytokines, HUVEC express cell surface adhesion molecules, including E-selectin, V-CAM, and I-CAM. Proteasome antagonists inhibit TNFα induced expression of these adhesion molecules, thereby providing a mechanism for regulating leucocyte adhesion and the inflammatory response.
More specifically, compounds (65), (68), (69) and (71) were assayed by the procedures set forth by Deisher, Kaushansky and Harlan (“Inhibitors of Topoisomerase II Prevent Cytokine-Induced Expression of Vascular Cell Adhesion Molecule-1, While Augmenting the Expression of Endothelial Leukocyte Adhesion Molecule-1 on Human Umbilical Vein Endothelial Cells,” Cell Adhesion Commun. 1:133-42, 1993) (incorporated herein by reference), with the exception that tetramethyl benzidine was used in place of o-phenylenediamine-peroxide.

urokinase = urokinase (Homo sapiens, UniProt P00749); experiment: Urokinase inhibition assay (Ki, Example 5); assay type: biochemical
Factor XI = Factor XI (Homo sapiens, UniProt P03951); experiment: Factor XI inhibition assay (Ki, Example 8); assay type: biochemical
Description: (§1) The reaction progress curves were recorded by reading the plates, typically 60 times with 30 second to 2 minute intervals. Initial rates were determined by unweighted nonlinear least-squares fitting to a first order reaction in GraFit (Erithacus Software Limited, London, England).
Factor XI. The same buffer was utilized in this assay as in the thrombin assay. […] From this 100 μM solution, seven serial 1:5 dilutions were made in buffer for assay.

[2] = Pharmacodynamic and pharmacokinetic study in rats; assay type: in vivo, male Sprague Dawley rats; details: rat; for half-life: read-out: terminal halflife (converted)
Description: Specifically, a pharmacodynamic and pharmacokinetic study of structure (20b) was conducted in male Sprague Dawley rats. […] Groups of rats (n ═3 or 4) were sacrificed and exsanguinated at 0.25, 0.5, 1, 2, 4 and 8 hours following dosing. Efficacy parameters, aPTT and TT, were measured for each plasma sample.

factor X = factor X (Bos taurus, UniProt P00743); experiment: Factor X inhibition assay (Ki, Example 5), bovine plasma enzyme; assay type: biochemical; details: bovine plasma enzyme (Example 5 protocol)
Description: as §1, with “The hydrolysis of chromogenic substrates was monitored at 405 nm. The” for “The”
Buffer and substrate were the same as used for thrombin assay. A 1:100 dilution was made in the pH8.0 tris buffer to serve as the first point. Seven more dilutions from the first were made for the assay.

[3] = biological target: Tissue Plasminogen Activator (t-PA) (Homo sapiens, UniProt P00750); experiment: t-PA inhibition assay (Ki, Example 5); assay type: biochemical
Description: as §1

factor VII = factor VII (Homo sapiens, UniProt P08709); experiment: Factor VII inhibition assay (Ki, Example 5); assay type: biochemical
Description: as §1
From this concentration point seven more sequential dilutions were made for the assay.

Plasmin = Plasmin (Bos taurus, UniProt P06868); experiment: Plasmin inhibition assay (Ki, Example 5); assay type: biochemical, bovine
Description: as §1

control plasma = experiment: Prothrombin time (PT) in control plasma; assay type: biochemical
Description: Then 200 μl of prewarmed (at 37° C. for ˜10 minutes) thromboplastin with calcium (from Sigma) was rapidly added into the plasma sample.

thrombin [4] = biological target: T1, thrombin (Bos taurus, UniProt P00735); experiment: Thrombin inhibition assay (Ki, Example 5); assay type: biochemical, bovine; set-up: thrombin; bovine plasma; 0.66; from tissue; host or cells: bovine plasma
Description: as §1
Seven sequential dilutions were made from the first point for the assay.

trypsin = biological target: T2, trypsin (Bos taurus, UniProt P00760); experiment: Trypsin inhibition assay (Ki, Example 5); assay type: biochemical, bovine
T2 sequence (P00760 24-246): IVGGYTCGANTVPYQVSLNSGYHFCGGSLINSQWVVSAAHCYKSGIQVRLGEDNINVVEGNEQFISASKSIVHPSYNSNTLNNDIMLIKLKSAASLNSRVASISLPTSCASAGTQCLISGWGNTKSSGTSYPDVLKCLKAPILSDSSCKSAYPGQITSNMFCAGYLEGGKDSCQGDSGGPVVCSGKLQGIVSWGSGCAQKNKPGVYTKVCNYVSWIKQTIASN
Description: as §1

thrombin [5] = biological target: T1, thrombin; experiment: Thrombin inhibition by solid phase compounds of Tables 11-15; assay type: biochemical; set-up: 100 μl of 10 μM thrombin solution; details: mixtures of diastereomers; read-out: Ki as thrombin inhibitors (mark at Cpd. No.)
Description: Following extensive washing with DMF, the resin was treated with the acid fluoride of N-Fmoc-4-aminomethylbenzoic acid, or (81), or (86) and Hunigs' base in DMF until the Kaiser test was negative. Alternatively, the Fmoc-protected thiazole-(75) or imidazole-based (77) linkers were coupled to the resin using BOP, HOBt and DIEA. In some instances Fmoc-Leu or another amino acid was attached to the resin prior to the thiazole-(75) or imidazole-based (77) linkers via the same methodology. […] Following washing with DMF a dienoic acid was coupled to the resin-bound linkers using PyBOP, HOBt and Hunigs' base in DMF until the result of a Kaiser test was negative. The cycloaddition was performed by pretreatment of a solution of a pyrazolidinedione (not shown) or urazole in DMF with a solution of [bis(trifluoroacetoxy)iodo]benzene in DMF. […] The resin was then washed with DMF and CH2Cl2. Oxidation to the ketoamide was effected by treatment of the resin with a solution of Dess-Martin periodinane in DMSO for 60 min. […] The supernatant was collected and the resin was washed with additional TFA. The combined filtrates were concentrated in vacuo. The residue was precipitated with diethyl ether and the ether was decanted. The resulting solid was reconstituted in 1:1 CH3CN:H2O and lyophilized. […] The compounds were assayed for inhibition of coagulation enzymes as mixtures of diastereomers.

Chain of factor VII (P08709 213-466 limits assumed): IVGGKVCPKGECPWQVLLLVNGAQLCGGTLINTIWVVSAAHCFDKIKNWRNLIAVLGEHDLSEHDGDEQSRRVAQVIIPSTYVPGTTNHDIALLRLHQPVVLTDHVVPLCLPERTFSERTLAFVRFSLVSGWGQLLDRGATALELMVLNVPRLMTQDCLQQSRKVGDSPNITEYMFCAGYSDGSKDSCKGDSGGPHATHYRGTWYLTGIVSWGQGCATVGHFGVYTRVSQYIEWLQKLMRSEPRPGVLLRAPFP
Chain of factor VII (P08709 61-212 limits assumed): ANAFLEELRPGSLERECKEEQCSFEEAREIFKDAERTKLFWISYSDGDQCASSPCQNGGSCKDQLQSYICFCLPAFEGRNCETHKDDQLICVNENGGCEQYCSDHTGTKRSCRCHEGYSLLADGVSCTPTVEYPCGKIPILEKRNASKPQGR
Chain of factor VII (P13726 33-295 partner): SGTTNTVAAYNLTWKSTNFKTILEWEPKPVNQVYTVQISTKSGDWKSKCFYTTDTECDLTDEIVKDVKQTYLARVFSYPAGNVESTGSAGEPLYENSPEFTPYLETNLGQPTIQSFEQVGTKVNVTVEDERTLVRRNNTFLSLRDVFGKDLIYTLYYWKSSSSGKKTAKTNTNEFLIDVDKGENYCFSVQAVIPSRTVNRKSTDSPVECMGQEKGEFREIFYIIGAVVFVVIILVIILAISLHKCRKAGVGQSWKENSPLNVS
Chain of Factor XI (P03951 388-625 limits assumed): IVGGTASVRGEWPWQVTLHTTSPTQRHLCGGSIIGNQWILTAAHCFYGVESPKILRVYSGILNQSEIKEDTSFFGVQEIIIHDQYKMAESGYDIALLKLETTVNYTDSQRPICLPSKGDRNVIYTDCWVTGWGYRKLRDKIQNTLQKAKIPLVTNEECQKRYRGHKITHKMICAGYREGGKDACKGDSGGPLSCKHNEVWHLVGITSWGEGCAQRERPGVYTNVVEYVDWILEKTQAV
Chain of Factor XI (P03951 19-387 limits assumed): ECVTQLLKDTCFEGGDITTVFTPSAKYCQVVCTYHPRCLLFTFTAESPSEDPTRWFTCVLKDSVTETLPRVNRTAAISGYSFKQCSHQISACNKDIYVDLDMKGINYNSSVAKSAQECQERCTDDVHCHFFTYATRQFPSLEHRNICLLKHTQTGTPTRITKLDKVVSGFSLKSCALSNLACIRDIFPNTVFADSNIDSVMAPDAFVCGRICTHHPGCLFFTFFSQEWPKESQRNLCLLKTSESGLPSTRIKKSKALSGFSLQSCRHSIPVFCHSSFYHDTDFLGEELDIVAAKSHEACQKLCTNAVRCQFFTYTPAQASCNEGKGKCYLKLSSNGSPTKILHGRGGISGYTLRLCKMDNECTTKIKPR
Chain of Tissue Plasminogen Activator (t-PA) (P00750 36-562): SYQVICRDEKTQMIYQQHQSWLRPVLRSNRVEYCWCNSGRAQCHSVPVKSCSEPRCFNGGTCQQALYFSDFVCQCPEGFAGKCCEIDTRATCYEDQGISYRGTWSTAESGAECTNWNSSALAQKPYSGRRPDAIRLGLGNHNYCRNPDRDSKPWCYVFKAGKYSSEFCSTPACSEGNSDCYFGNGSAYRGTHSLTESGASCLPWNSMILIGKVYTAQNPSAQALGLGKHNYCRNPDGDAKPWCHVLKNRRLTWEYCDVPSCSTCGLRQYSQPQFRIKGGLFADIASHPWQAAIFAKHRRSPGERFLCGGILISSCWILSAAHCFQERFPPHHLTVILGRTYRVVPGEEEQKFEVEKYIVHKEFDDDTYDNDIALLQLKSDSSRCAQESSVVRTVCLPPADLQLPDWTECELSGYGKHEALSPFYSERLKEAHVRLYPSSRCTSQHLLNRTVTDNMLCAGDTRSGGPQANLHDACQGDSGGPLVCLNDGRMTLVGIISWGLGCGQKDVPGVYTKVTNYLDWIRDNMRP
Chain of factor X (P00743 234-492 limits assumed): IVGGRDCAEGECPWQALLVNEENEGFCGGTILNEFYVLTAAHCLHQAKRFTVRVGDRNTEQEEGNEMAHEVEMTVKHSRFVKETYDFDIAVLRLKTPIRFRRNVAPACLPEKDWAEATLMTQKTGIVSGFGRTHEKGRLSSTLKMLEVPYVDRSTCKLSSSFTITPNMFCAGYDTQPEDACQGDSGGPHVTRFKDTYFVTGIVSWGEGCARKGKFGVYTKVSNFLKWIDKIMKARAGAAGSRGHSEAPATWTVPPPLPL
Chain of factor X (P00743 41-180 limits assumed): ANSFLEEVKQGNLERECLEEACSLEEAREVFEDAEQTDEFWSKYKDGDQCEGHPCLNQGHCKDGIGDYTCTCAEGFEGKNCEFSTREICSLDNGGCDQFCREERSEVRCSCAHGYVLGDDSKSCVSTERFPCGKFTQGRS
Chain of Plasmin (P06868 584-812 limits assumed): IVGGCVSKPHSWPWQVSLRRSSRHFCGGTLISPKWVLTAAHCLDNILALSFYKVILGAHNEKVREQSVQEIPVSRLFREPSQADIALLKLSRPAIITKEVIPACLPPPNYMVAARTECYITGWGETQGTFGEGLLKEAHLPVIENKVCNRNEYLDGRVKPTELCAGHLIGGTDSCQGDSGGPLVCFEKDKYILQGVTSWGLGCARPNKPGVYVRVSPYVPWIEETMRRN
Chain of Plasmin (P06868 104-583 limits assumed): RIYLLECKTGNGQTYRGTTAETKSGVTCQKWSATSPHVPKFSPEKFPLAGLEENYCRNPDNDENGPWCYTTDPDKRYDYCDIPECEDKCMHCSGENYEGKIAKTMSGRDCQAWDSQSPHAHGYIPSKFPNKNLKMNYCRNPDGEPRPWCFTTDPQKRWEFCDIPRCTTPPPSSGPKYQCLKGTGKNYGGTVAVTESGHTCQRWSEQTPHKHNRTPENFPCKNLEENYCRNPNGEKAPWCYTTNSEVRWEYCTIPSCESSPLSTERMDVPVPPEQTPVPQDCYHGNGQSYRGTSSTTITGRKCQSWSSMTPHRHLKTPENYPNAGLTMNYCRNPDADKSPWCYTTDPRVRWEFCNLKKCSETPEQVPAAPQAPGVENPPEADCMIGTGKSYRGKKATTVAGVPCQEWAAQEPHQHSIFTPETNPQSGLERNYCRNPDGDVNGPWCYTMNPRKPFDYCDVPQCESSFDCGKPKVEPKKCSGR

Structure (SMILES): CC1=C2[C@H]3OC(=O)[C@@H](C)[C@@H]3CC[C@@]2(C)C=CC1=O [Santonin, reference compound]
thioredoxin-induced turbidity of insulin at 650 nM (thioredoxin): did not block thioredoxin-induced turbidity of insulin

Structure (SMILES): CC1C=CC(C=O)n2c(=O)n(-c3ccccc3)c(=O)n21 (stereo not drawn) [Structure 69]
IC50 [1]: 32400 ± 1700 nM

Ki (urokinase): 600 nM | Ki (Factor XI): 27 nM | half-life ([2]; male, Sprague Dawley, plasma, 4 mg/kg IV): 7.5 h | bioavailability ([2]; male, Sprague Dawley, plasma, 10 mg/kg PO vs 4 mg/kg IV, read-out: bioavailability of orally administered compound): ~27% | half-life ([2]; male, Sprague Dawley, plasma, 10 mg/kg PO): 4.5 h | Ki (factor X): 966 nM | Ki ([3]; read-out: Ki t-PA): 495 nM | Ki (factor VII): 270 nM | Ki (Plasmin): 415 nM
Structure (SMILES): N=C(N)NCCC[C@H](NC(=O)[C@@H]1CCN2CC[C@@](N)(Cc3ccccc3)C(=O)N12)C(=O)c1nc2ccccc2s1 [Structure 20b]
Efficacy parameters aPTT and TT (FIGS. 4A and 4B) ([2]; 4 mg/kg IV and 10 mg/kg PO): in vivo efficacy

Ki (urokinase): 600 nM | Ki (Factor XI): 27 nM | Ki ([3]; read-out: Ki tPA (tissue Plasminogen Activator)): 495 nM | Ki (factor VII): 270 nM | Ki (Plasmin): 415 nM
Structure (SMILES): N=C(N)NCCC[C@H](NC(=O)[C@@H]1CCN2CC[C@@](N)(Cc3ccccc3)C(=O)N12)C(=O)c1nc2ccccc2s1 [20^b]

Structure (SMILES): O=C(CCl)c1cccc2c1C(=O)N(c1ccccc1)C2=O [Structure 65]
IC50 [1]: 9600 ± 100 nM

Structure (SMILES): O=C(CCl)C1CCCn2c(=O)n(-c3ccccc3)c(=O)n21 (stereo not drawn) [Structure 68]
IC50 [1]: 14200 ± 800 nM

Structure (SMILES): COC(=O)C#CC(O)C1C=CC(C)n2c(=O)n(-c3ccccc3)c(=O)n21 (stereo not drawn) [Structure 231]
thioredoxin-induced turbidity of insulin at 650 nM (thioredoxin): turbidity decreases with increasing concentration

Structure (SMILES): N=C(N)NCCC[C@H](NC(=O)[C@@H]1CCN2CC[C@@](N)(Cc3ccccc3)C(=O)N12)C(=O)CCl [Structure 13b]
PT (control plasma; Concentration 1 pM): 13 s | PT (control plasma; Concentration 10 pM): 17 s | PT (control plasma; Concentration 50 pM): 18 s | PT (control plasma; Concentration 100 pM): 23 s | PT (control plasma; Concentration 200 pM): 24 s | PT (control plasma; Concentration 500 pM): 27 s | PT (control plasma; Concentration 1 nM): 30 s | PT (control plasma; Concentration 10 nM): 31 s | PT (control plasma; Concentration 30 nM): 31 s | PT (control plasma; Concentration 50 nM): 30 s | PT (control plasma; Concentration 80 nM): 33 s

Ki (Factor XI): 391 nM | Ki (thrombin [4]): 10.4 nM | Ki (trypsin): 0.54 nM | Ki (factor X): 4600 nM | Ki (factor VII): 1800 nM
Structure (SMILES): N=C(N)NCCC[C@H](NC(=O)[C@@H]1CC[C@@H]2CC[C@](N)(Cc3ccccc3)C(=O)N21)C(=O)c1nc2ccccc2s1 [Structure 29a]

Structure (SMILES): COC(=O)C#CC(O)c1cccc2c1C(=O)N(c1ccccc1)C2=O (stereo not drawn) [Structure 71]
IC50 [1]: 4900 ± 180 nM

Ki (thrombin [5]): < 10 nM
Structure (SMILES): COc1ccccc1-n1c(=O)n2n(c1=O)C(C(=O)NC(CCCCN)C(=O)C(=O)NCCc1ccc(C(N)=O)cc1)C=CC2CC(C)CC(C)(C)C (stereo not drawn) [Structure 127]

Ki (thrombin [5]): < 10 nM
Structure (SMILES): CC(C)CC1C=CC(C(=O)NC(CCCCN)C(=O)C(=O)NCCc2ccc(C(N)=O)cc2)n2c(=O)n(Cc3cc(F)ccc3F)c(=O)n21 (stereo not drawn) [Structure 113]

Ki (thrombin [5]): < 10 nM
Structure (SMILES): CC1C=CC(C(=O)NC(CCCCN)C(=O)C(=O)NCc2ccc(C(N)=O)cc2)n2c(=O)n(CCc3cccs3)c(=O)n21 (stereo not drawn) [Structure 146]

Ki (thrombin [5]): < 10 nM
Structure (SMILES): CC(CC1C=CC(C(=O)NC(CCCCN)C(=O)C(=O)NCCc2ccc(C(N)=O)cc2)n2c(=O)n(C(c3ccccc3)c3ccccc3)c(=O)n21)CC(C)(C)C (stereo not drawn) [Structure 131]

Ki (thrombin [5]): < 10 nM
Structure (SMILES): CC1=CC(C(=O)NC(CCCCN)C(=O)C(=O)NCCc2ccc(C(N)=O)cc2)N2C(=O)C(CC(C)C)(CC(C)C)C(=O)N2C1 (stereo not drawn) [Structure 188]

Ki (thrombin [5]): < 10 nM
Structure (SMILES): NCCCCC(NC(=O)C1C=C2CCCCC2n2c(=O)n(Cc3cc(F)ccc3F)c(=O)n21)C(=O)C(=O)NCCc1ccc(C(N)=O)cc1 (stereo not drawn) [Structure 101]

Ki (thrombin [5]): < 10 nM
Structure (SMILES): COc1ccccc1-n1c(=O)n2n(c1=O)C(C(=O)NC(CCCCN)C(=O)C(=O)NCCc1ccc(C(N)=O)cc1)C=CC2CC(C)C (stereo not drawn) [Structure 114]

Ki (thrombin [5]): < 10 nM
Structure (SMILES): CC1=CC(C(=O)NC(CCCCN)C(=O)C(=O)NCCc2ccc(C(N)=O)cc2)n2c(=O)n(Cc3cc(F)ccc3F)c(=O)n2C1 (stereo not drawn) [Structure 222]

Ki (thrombin [5]): < 10 nM
Structure (SMILES): CC(C)CC1C=CC(C(=O)NC(CCCCN)C(=O)C(=O)NCCc2ccc(C(N)=O)cc2)n2c(=O)n(CCc3cccs3)c(=O)n21 (stereo not drawn) [Structure 115]

Structure (SMILES): COC(=O)/C=C/C(=O)C1C=CC(C)n2c(=O)n(-c3ccccc3)c(=O)n21 (stereo not drawn) [Structure 233]
thioredoxin-induced turbidity of insulin at 650 nM (thioredoxin): turbidity decreases with increasing concentration

Ki (thrombin [5]): < 10 nM
Structure (SMILES): CC(C)CC1C=CC(C(=O)NC(CCCCN)C(=O)C(=O)NCc2ccc(C(N)=O)cc2)n2c(=O)n(C(c3ccccc3)c3ccccc3)c(=O)n21 (stereo not drawn) [Structure 108]
